# “And” between values parts separate entries of the source, which are not always exact repeats. Identical values can stand only once.
# Experiment: Anticancer human tumor 997537-175-T-J1-PDC patient-derived colon adenocarcinoma cell line growth inhibition [POLQ]
# Conditions: 997537-175-T-J1-PDC complex spheroid viability, combination with POLQ inhibitors; for viability, T/C: stronger effect = lower value
# Description: Multicellular complex tumor spheroid response to Polymerase (POL) inhibitors (novobiocin, ART-558, RP6685) in combination with a variety of drugs and investigational agents in selected tumor cell lines
# The POL inhibitors (novobiocin, ART-558, and RP6685) were evaluated both individually and in combination with standard of care and investigational anticancer small molecules within a complex spheroid model of solid tumors. . Complex spheroids include a stromal component modeled by human endothelial cells (HUVEC) and fibroblasts modeled by human mesenchymal stem cells (MSCs). The concentration ranges selected for each drug and investigational agent were based upon clinically achievable concentrations if the clinical Cmax of the agent was known.
# Compounds. The drugs and investigational agents: novobiocin (NSC847541), ART-558 (NSC835418), RP-6685 (NSC848927), peposertib (NSC802822), ceralasertib (NSC780249), elimusertib (NSC800525), camonsertib (NSC841442), AZD-1390 (NSC803789), olaparib (NSC753686), talazoparib (NSC767125), rucaparib (NSC756644), sotorasib (NSC818433), MRTX-1133 (NSC836407), SN-38 (NSC673596), topotecan (NSC609699), epotoside (NSC141540), doxorubicin (NSC123127), gemcitabine (NSC613327), 5-fluorouracil (NSC19893), paclitaxel (NSC125973), vemurafenib (NSC761431), MSA-2 (NSC828583), SN-011 (NSC837082), adavosertib (NSC754352), prexasertib (NSC758257), carboplatin (NSC241240) and oxaliplatin (NSC266046), were obtained from the National Cancer Institute (NCI) Developmental Therapeutics Program Chemical Repository (21). The FDA-approved anticancer drug set is available from the Developmental Therapeutics Program at https://dtp.cancer.gov/organization/dscb/obtaining/. […] The stock solutions were prepared in dimethyl sulfoxide (DMSO, Sigma-Aldrich, St. Louis, MO, cat. D2650), except for the platinum compounds which were prepared in saline (Quality Biological, Gaithersburg, MD, cat. 114-055-101), at 800-fold the tested concentration and stored at -70 degrees C prior to their use. All drugs and investigational agents were tested over a range starting from a high concentration at or near the clinical Cmax and decreasing in half-log increments. If the clinical Cmax for an agent had not been determined, the highest concentration tested was 10 microM, except for SN-38, which was tested at a high concentration of 1 microM.
# Cell Culture. All cells were maintained in an incubator at 37 degrees C and 5% CO2 with 95% humidity. The PDC lines were cultured according to standard operating procedures established by the NCI PDMR (https://pdmr.cancer.gov). Table 3 of the manuscript, lists the cell lines along with the number of the three cell types plated to form the mct-spheroids and media for tumor cell growth. After thawing, all PDC lines, except 997537-175-T-J1-PDC and 415267-285-R-J2-PDC, were cultured in Matrigel-coated flasks prepared with a working solution of 1X Ham's F-12 nutrient mix, without supplementation (Thermo Fisher Scientific, cat. 11765054), 100 U/mL penicillin-streptomycin (Thermo Fisher Scientific, cat. 15140122), and 2.5% Matrigel (Corning Inc., Corning, NY, cat. 354248) for the first three passages. The two PDC lines 997537-175-T-J1-PDC and 415267-285-R-J2-PDC were cultured on uncoated flasks. The 857933-349-R-J2-PDC line was cultured in 6C/Colon 1B media containing advanced DMEM/F-12 (Thermo Fisher Scientific, cat. 12634028), 10 mM HEPES (Thermo Fisher Scientific, cat. 15630080), 1X GlutaMAX supplement (Thermo Fisher Scientific, cat. 35050061), 0.1 mg/mL primocin (InvivoGen, San Diego, CA, cat. ant-pm-2), 10% defined fetal bovine serum, heat inactivated (HyClone Laboratories Inc., Logan, UT, cat. SH30070.03HI), 50% L-WRN conditioned media (ATCC, cat. CRL-3276), 1.25 mM N-Acetyl-L-cysteine (Sigma-Aldrich, cat. A9165), 10 mM nicotinamide (Sigma-Aldrich, cat. N0636), 1X B-27 supplement (Thermo Fisher Scientific, cat. 17504044), 1X N-2 supplement (Thermo Fisher Scientific, cat. […]
# 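Also: luminescence signal used as a surrogate for viable cells; spheroids exposed to drugs for seven days before readout.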
SMILES,"viability, T/C (compound 0.0316 µM)","viability, T/C (compound 0.1 µM)","viability, T/C (compound 0.316 µM)","viability, T/C (compound 1 µM)","viability, T/C (compound 3.16 µM)","viability, T/C (compound 10 µM)",IC50 (curve of compound),"IC50 (compound alone, run of 11/27/2023) [µM]","IC50 (compound alone, run of 12/05/2023) [µM]","viability, T/C (compound 0.00949 µM)","viability, T/C (compound 0.03 µM)","viability, T/C (compound 0.0949 µM)","viability, T/C (compound 0.3 µM)","viability, T/C (compound 0.949 µM)","viability, T/C (compound 3 µM)"
CCCS(=O)(=O)Nc1ccc(F)c(C(=O)c2c[nH]c3ncc(-c4ccc(Cl)cc4)cc23)c1F,97.4% and 90.7% and 82.4%,82.1% and 86.5% and 97.7%,88.1% and 82.6% and 89.7%,86.5% and 84.5% and 82.5%,65.1% and 72.9% and 76%,26.5% and 42% and 22.9%,4.97 µM and 7.51 µM and 5.5 µM,,,,,,,,
Cc1cccc(N(C)C(=O)C2C(O)CCN2c2nc(C)cc(C(F)(F)F)c2C#N)c1 (stereo not given),97.6% [middle of 13 runs],98.6% [middle of 13 runs],97.3% [middle of 13 runs],101% [middle of 13 runs],101% [middle of 13 runs],96.9% [middle of 13 runs],,> 10,> 10,,,,,,
O=C(c1cc(Cc2n[nH]c(=O)c3ccccc23)ccc1F)N1CCN(C(=O)C2CC2)CC1,98.8% and 31.4% and 107%,107% and 36% and 112%,99.5% and 36% and 104%,87.5% and 38% and 104%,121% and 40.2% and 95.3%,89.1% and 32.3% and 94.1%,,,,,,,,,
CC(=O)O[C@H]1C(=O)[C@@]2(C)[C@H]([C@H](OC(=O)c3ccccc3)[C@]3(O)C[C@H](OC(=O)[C@H](O)[C@@H](NC(=O)c4ccccc4)c4ccccc4)C(C)=C1C3(C)C)[C@]1(OC(C)=O)CO[C@@H]1C[C@@H]2O,,,,,,,0.0125 µM and 0.0207 µM and < 0.00949 µM,,,55.5% and 66.9% and 49.9%,33.4% and 42.3% and 41.3%,22.8% and 35.5% and 38.7%,32.1% and 41.2% and 22.7%,32% and 28.6% and 22%,30.9% and 40.5% and 33.2%
CNCc1ccc(-c2[nH]c3cc(F)cc4c3c2CCNC4=O)cc1,90.4% and 94.4% and 96.8%,96.6% and 93.5% and 90.8%,91% and 108% and 106%,98.3% and 93.2% and 88.9%,100% and 103% and 99.9%,95% and 98.8% and 89.1%,> 10 µM,,,,,,,,

# From PubChem BioAssay AID1963825 (Molecular Pharmacology Branch, DTP, NCI, 2024)
